{"source": "EPA's ToxValDB 9.5 (doi:10.2903/j.efsa.2018.5252)", "key": {"Aphidius rhopalosiphi": {"system": "Aphidius rhopalosiphi", "assay": "LR50; higher = less toxic", "details": "not reported; mortality"}, "Apis mellifera": {"system": "Apis mellifera", "details": "acute, mortality"}, "Bibionidae": {"system": "Bibionidae", "details": "chronic/long-term"}, "Pimephales promelas": {"system": "Pimephales promelas", "details": "chronic/long-term; duration: 110 days; reproduction"}, "Canidae": {"system": "Canidae", "details": "subchronic; duration: 90 days; oral; M/F; Dog Other; body weight"}, "Tagia sp.": {"system": "Tagia sp.", "details": "chronic/long-term; growth"}, "Oryctolagus sp.": {"system": "Oryctolagus sp.", "details": "reproduction developmental; body weight"}, "Cyprinus carpio": {"system": "Cyprinus carpio", "details": "acute; duration: 96 hours; mortality"}}, "data": [{"molecule": "CC[C@H]1CCC[C@H](O[C@H]2CC[C@H](N(C)C)[C@@H](C)O2)[C@@H](C)C(=O)C2=C[C@@H]3[C@@H](C=C(C)[C@@H]4C[C@@H](O[C@@H]5O[C@@H](C)[C@H](OC)[C@@H](OC)[C@H]5OC)C[C@@H]34)[C@@H]2CC(=O)O1.CC[C@H]1CCC[C@H](O[C@H]2CC[C@H](N(C)C)[C@@H](C)O2)[C@@H](C)C(=O)C2=C[C@@H]3[C@@H](C=C[C@@H]4C[C@@H](O[C@@H]5O[C@@H](C)[C@H](OC)[C@@H](OC)[C@H]5OC)C[C@@H]34)[C@@H]2CC(=O)O1", "note": "[Spinosad]", "values": [{"measurement": "LR50", "setting": "Aphidius rhopalosiphi", "result": 0.371, "unit": "g/ha"}, {"measurement": "LD50", "setting": "Colinus virginianus; acute, oral, mortality", "result": "> 2000", "unit": "mg/kg-day"}, {"measurement": "NOAEL", "setting": "Colinus virginianus; chronic", "result": 68.5, "unit": "mg/kg-day"}, {"measurement": "LEL", "setting": "Colinus virginianus; chronic, mortality", "result": 200, "unit": "mg/kg-day"}, {"measurement": "LD50", "setting": "Apis mellifera; dermal", "result": 0.0036, "unit": "µg/piece"}, {"measurement": "LD50", "setting": "Apis mellifera; oral, unspecified", "result": 0.057, "unit": "µg/piece"}, {"measurement": "NOEC", "setting": "Bibionidae; duration: 25 days", "result": 0.62, "unit": "µg/L"}, {"measurement": "NOEC", "setting": "Bibionidae; duration: 28 days", "result": 0.0585, "unit": "mg/kg"}, {"measurement": "LD50", "setting": "Rattus norvegicus; acute, oral, mortality", "result": "> 2000", "unit": "mg/kg-day"}, {"measurement": "NOAEL", "setting": "Rattus norvegicus; chronic, duration: 2 years, oral, diet, M, Fischer 344, organ weight", "result": 2.4, "unit": "mg/kg-day"}, {"measurement": "NOAEL", "setting": "Rattus norvegicus; reproduction developmental, M/F, reproduction", "result": 10, "unit": "mg/kg-day"}, {"measurement": "NOEC", "setting": "Pimephales promelas", "result": 0.217, "unit": "mg/L"}, {"measurement": "NOAEL", "setting": "Canidae", "result": 4.89, "unit": "mg/kg-day"}, {"measurement": "LD50", "setting": "Anas platyrhynchos; acute, oral, unspecified, mortality", "result": "> 2000", "unit": "mg/kg-day"}, {"measurement": "NOAEL", "setting": "Anas platyrhynchos; chronic/long-term", "result": 78.1, "unit": "mg/kg-day"}, {"measurement": "LEL", "setting": "Anas platyrhynchos; chronic/long-term, mortality", "result": 200, "unit": "mg/kg-day"}, {"measurement": "NOEC", "setting": "Tagia sp.", "result": 35.2, "unit": "mg/kg"}, {"measurement": "NOAEL", "setting": "Oryctolagus sp.", "result": 10, "unit": "mg/kg-day"}, {"measurement": "LC50", "setting": "Cyprinus carpio", "result": 4, "unit": "µg/mL"}]}]}
